Reference: patent publication US20240384268A1, “Oligonucleotides” (Hudson Institute of Medical Research, priority 2021, published 2024)
In the oligonucleotide strings, read from the 5' end, every base follows the letter of its sugar. An asterisk marks phosphorothioate; unmarked linkages are phosphodiester. Other units and linkages are bracketed, terminal groups are in braces. A string of capitals states the bases alone. d = 2'-deoxy (DNA); m = 2'-O-methyl

Columns and labels:
Assay type in all cases: cell-based
human TLR9 = target: T1, human TLR9 (Homo sapiens, UniProt Q9NR96); assay: HEK-TLR9 NF-κB-luciferase reporter, ODN2006 stimulation; conditions: HEK-TLR9; 500 nM 2′OMe or PS oligos; 200 nM ODN2006
T1 construct: HA; host or cells: 293XL-hTLR9-HA (HEK293)
T1 sequence (Q9NR96 26-1032): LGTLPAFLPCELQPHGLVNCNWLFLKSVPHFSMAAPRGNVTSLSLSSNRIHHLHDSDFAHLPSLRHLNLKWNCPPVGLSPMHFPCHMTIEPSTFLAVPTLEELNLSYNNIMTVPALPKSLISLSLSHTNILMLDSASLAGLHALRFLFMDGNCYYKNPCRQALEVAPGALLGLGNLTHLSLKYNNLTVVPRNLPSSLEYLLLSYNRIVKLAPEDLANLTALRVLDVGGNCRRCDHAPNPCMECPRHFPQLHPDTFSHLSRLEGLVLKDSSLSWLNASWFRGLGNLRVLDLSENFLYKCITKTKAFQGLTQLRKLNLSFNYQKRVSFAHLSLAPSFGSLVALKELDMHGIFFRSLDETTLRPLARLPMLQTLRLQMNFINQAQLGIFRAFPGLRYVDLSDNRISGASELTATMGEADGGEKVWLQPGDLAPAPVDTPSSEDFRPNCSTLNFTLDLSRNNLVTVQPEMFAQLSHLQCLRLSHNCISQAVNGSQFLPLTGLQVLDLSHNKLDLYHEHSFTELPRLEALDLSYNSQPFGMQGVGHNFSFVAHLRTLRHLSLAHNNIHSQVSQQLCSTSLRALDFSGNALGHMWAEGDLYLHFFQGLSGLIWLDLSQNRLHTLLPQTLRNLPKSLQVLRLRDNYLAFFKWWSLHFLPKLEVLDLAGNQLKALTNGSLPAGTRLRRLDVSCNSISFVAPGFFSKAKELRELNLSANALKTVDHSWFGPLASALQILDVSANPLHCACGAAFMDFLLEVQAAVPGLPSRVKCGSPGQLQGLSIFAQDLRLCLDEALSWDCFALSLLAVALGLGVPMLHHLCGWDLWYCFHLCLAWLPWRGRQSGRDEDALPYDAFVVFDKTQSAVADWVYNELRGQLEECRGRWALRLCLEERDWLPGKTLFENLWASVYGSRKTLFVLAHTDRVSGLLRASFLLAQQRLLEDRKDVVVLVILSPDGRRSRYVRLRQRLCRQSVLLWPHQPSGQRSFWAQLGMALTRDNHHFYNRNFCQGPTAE
Procedure: In such examples, inhibition of TLR9 activity can be identified by observation of an overall decreased TLR9 response of the cell population, or a lower proportion of cells having TLR9-positive activity as compared to positive control condition in which cells are treated with TLR9 agonist in the absence of the oligonucleotide (or in the presence of an appropriate control inhibitory agent). In one example, HEK cells are transfected with TLR9 and a NF-κB reporter and incubated with an oligonucleotide and then stimulated with a TLR9 agonist. TLR9 activity can then be determined by a luciferase assay. TLR9 activity can also be analysed by measuring cytokine levels (e.g., IFN, IL-6, TNF and IL-12), for example by ELISA.
(§1) For cGAS stimulations, cells were treated for indicated duration with ASOs, prior to transfection with ISD70 (human cells) or ISD45 (mouse cells) (the ASOs were not washed off prior to ISD transfection unless otherwise indicated). The cGAS ligands ISD45 (Stetson and Medzhitov, 2006) and ISD70 (also known as VACV-70 (Unterholzner et al., 2010)) (Table 1) were resuspended as follows: 5 1d of sense and 5 μl of antisense strands at 10 μg/μl were added to 90 μl PBS under sterile conditions, heated at 75° C. for 30 min, prior to letting cool down at room temperature and aliquoting (stock at 1 μg/1 l). The ISDs were transfected at a concentration of […] at a ratio of 1 μg:1 μl with Lipofectamine 2000 in Opti-MEM (Thermo Fisher Scientific). HEK-TLR3, HEK-TLR7 and […] were treated with indicated concentration of ASOs for 20-50 min, prior to stimulation with poly(I:C) (Invivogen), R848 (Invivogen), Motolimod (MedChemExpress) and the Class B CpG oligonucleotides ODN 2006 (synthesised by IDT and resuspended in RNase-free TE buffer [Table 1]), respectively. The TLR2/1 agonist PAM3CSK4 (Invivogen), the TLR4 agonist lipopolysaccharide (Invivogen), the Class B CpG oligonucleotides ODN 1826 (synthesised by IDT and resuspended in RNase-free TE buffer), the mouse Sting agonist DMXAA (Cayman) and the human STING agonist (compound #3 from (Raanjulu et al., 2018), referred to as GSK herein—kind gift from Cancer Therapeutics CRC, Australia) were used at indicated concentrations. Aspirin (Sigma—A2093) was resuspended in pure medium to 10 mM, filter sterilised and added to the cells at 2 mM final. All ASOs were synthesised by Integrated DNA Technologies (IDT), and resuspended in RNase-free TE buffer, pH 8.0 (Thermo Fisher Scientific). Cell viability was assessed by adding 1× fresh resazurin solution to the wells (10λ solution made up with 7 mg resazurin [Sigma—R7017] dissolved in 3.5 ml PBS, sterile filtered at […]) for 4 h, prior to reading at with a Fluostar OPTIMA (BMG LABTECH) plate-reader (fluorescence: Excitation 535 nm, Emission 590); wells with medium only and 1× resazurin were used as blanks.
Following transfection, the cells were collected from the 6-wells and aliquoted into 96-wells, just before ASO and overnight TLR stimulation (as above described). Similarly, the LL171 cells expressing and ISRE-Luc reporter were treated overnight. The next day, the cells were lysed in 40 μl (for a 96-well plate) of 1× Glo Lysis buffer (Promega) for 10 min at room temperature. […] was then subjected to firefly luciferase assay using 40 μl of Luciferase Assay Reagent (Promega). Luminescence was quantified with a Fluostar OPTIMA (BMG LABTECH) luminometer.

cGAS [1] = target: T2, cGAS (Homo sapiens, UniProt Q8N884); assay: ISD70-driven IP-10 production in HT-29 cells, ELISA; design: endogenous in cells; conditions: ISD70 24 h; for effect on ISD70-induced IP-10 production at increased doses (in words): ASO overnight at 250 or 500 nM; for effect on ISD70-induced IP-10 production at low dose (in words): ASO overnight at 125 nM (62.5-125 nM)
T2 sequence (Q8N884 whole entry): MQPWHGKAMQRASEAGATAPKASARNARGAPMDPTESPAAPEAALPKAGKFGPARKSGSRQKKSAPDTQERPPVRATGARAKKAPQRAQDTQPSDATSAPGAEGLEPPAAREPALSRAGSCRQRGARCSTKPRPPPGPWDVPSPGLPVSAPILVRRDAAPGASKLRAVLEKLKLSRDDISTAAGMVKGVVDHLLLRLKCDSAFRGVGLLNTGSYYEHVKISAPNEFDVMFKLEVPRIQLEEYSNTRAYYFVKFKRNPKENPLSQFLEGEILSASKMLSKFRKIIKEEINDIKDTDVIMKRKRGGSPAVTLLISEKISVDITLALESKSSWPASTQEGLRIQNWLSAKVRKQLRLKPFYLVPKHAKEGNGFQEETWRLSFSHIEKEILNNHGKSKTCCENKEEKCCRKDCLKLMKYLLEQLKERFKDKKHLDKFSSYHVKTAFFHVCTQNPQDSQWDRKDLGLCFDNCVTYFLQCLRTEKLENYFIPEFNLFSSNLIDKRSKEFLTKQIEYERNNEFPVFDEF
Procedure: (§2) In such examples, inhibition of cGAS activity can be identified by observation of an overall decreased cGAS response of the cell population, or a lower proportion of cells having cGAS-positive activity as compared to positive control condition in which cells are treated with cGAS agonist in the absence of the oligonucleotide (or in the presence of an appropriate control inhibitory agent). In one example, THP-1 or HT-29 cells are transfected with ISD70 and incubated with an oligonucleotide. cGAS activity can then be determined by cytokine (e.g., IP-10 and/or IFNβ) expression (e.g., gene and/or protein expression) and/or secretion levels, such as by ELISA. A similar assay can be performed with LL171 cells transfected with ISD45. […] By way of example, cGAS enzymatic activity may be assessed in vitro using recombinant cGAS and then measuring activity thereof by way of a cGAMP ELISA.
as §1
Human IP-10 and IFN-β levels were measured using supernatants from the different cultures and were quantified using IP-10 (BD Biosciences, #550926) or IFN-β (PBL assay science, #41415-1) ELISA kits respectively, according to the manufacturers' protocol. Tetramethylbenzidine substrate (Thermo Fisher Scientific) was used for quantification of the cytokines on a Fluostar OPTIMA (BMG LABTECH) plate-reader.

TLR3 = target: T3, TLR3 (Homo sapiens, UniProt O15455); assay: HEK-TLR3 NF-κB-luciferase reporter, poly(I:C) stimulation; design: host or cells: HEK-Blue hTLR3 (HEK293); conditions: 100 nM ASOs/ODNs, poly(I:C) 0.5 μg/ml
T3 sequence (O15455 24-904): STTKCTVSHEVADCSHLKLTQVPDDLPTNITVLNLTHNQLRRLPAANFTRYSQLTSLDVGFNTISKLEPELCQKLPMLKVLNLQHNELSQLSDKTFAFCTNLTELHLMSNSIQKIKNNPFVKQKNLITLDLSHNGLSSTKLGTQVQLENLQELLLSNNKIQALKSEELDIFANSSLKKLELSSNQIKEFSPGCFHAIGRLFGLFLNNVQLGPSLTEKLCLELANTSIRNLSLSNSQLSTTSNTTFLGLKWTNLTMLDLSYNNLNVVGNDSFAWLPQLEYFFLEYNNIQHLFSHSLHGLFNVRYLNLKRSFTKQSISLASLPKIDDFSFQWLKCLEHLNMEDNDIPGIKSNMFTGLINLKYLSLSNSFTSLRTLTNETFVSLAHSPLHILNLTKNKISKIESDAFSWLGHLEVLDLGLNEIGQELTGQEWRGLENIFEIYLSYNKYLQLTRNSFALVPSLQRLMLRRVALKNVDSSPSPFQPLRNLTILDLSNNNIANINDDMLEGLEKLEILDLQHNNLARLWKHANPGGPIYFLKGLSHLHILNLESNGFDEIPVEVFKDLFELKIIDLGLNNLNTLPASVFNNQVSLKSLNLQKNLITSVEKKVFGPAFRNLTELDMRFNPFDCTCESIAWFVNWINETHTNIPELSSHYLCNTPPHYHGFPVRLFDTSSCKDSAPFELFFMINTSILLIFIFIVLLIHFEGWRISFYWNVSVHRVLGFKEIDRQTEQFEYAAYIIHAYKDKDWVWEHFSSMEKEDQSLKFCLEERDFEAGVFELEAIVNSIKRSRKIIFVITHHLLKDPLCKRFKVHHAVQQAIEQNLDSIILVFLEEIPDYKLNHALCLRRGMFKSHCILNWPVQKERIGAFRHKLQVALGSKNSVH

cGAS [2] = target: T2, cGAS; assay: ISD70-driven IP-10 (and IFN-β) production in THP-1 cells, ELISA; design: endogenous in cells; host or cells: THP-1 (undifferentiated); conditions: THP-1; 2′OMe or PS oligos, 100-250 nM, pre-treatment as in figure legends; ISD70 2.5 μg/ml
Procedure: The ability of an oligonucleotide to inhibit cGAS activity can, for example, be analysed by incubating cells which express cGAS with an oligonucleotide, then stimulating said cells with a cGAS agonist (e.g., 70-bp interferon stimulating DNA or ISD70; 45-bp interferon stimulating DNA or ISD45), and analysing the overall cGAS response in the cell population, or analysing the proportion of cells having cGAS-positive activity after a defined period of time.
as §2, §1

mouse cGAS = target: T4, mouse cGAS (Mus musculus, UniProt Q8C6L5); assay: ISD45-driven ISRE-luciferase in mouse LL171 cells; conditions: 2′OMe or PS oligos 50-600 nM, ISD45 2.5 μg/ml overnight
T4 construct: endogenous in cells; host or cells: LL171 (mouse L929 cells with ISRE-Luciferase)
T4 sequence (Q8C6L5 whole entry): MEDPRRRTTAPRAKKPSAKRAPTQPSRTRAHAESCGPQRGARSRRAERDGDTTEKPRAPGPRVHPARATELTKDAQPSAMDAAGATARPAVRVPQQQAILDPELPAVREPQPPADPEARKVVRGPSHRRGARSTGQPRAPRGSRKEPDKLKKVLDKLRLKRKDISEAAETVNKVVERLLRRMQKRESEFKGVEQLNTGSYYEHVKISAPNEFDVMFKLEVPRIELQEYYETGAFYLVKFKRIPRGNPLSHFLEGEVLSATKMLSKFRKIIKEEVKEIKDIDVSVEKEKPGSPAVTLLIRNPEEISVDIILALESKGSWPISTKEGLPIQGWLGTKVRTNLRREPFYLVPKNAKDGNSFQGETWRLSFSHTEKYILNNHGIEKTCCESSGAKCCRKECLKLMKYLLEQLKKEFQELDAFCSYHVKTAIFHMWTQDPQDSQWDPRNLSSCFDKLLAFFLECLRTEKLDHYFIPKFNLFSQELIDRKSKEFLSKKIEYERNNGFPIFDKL
Procedure: as §2, §1
Following transfection, the cells were collected from the 6-wells and aliquoted into 96-wells, just before ASO and overnight TLR stimulation (as above described).

mC*mU*mU*mU*mA*G*T*C*G*T*A*G*T*T*G*mC*mU*mU*mC*mC (CUUUAGTCGTAGTTGCUUCC; sugars from the 5' end m5 d10 m5, all phosphorothioate, methylation of C not given here) [ASO11]
inhibition of TLR9 sensing of ODN2006 (in words) (human TLR9): lacked the capacity to inhibit TLR9 | effect on ISD70-induced IP-10 production at increased doses (in words) (cGAS [1]): blocked ISD70-induced IP-10 production

mG*mG*mU*mC*mU*T*G*G*C*T*T*C*G*T*G*mG*mA*mG*mC*mA (mG*mG*mU*mC*mU*dT*dG*dG*dC*dT*dT*dC*dG*dT*dG*mG*mA*mG*mC*mA; antisense) [ASO5]
inhibition of polyI:C sensing by TLR3 at 100 nM (in words) (TLR3): retained significant inhibition of polyL:C sensing | inhibition of TLR9 sensing of ODN2006 (in words) (human TLR9): significantly inhibited TLR9 sensing of ODN2006

mU*mC*mC*mG*mG*C*C*T*C*G*G*A*G*T*C*mU*mC*mC*mA*mU (mU*mC*mC*mG*mG*dC*dC*dT*dC*dG*dG*dA*dG*dT*dC*mU*mC*mC*mA*mU; antisense) [ASO2up]
effect on ISD70-induced IP-10 production at low dose (in words) (cGAS [1]): more potent inhibitor of ISD70-driven IP-10 production than ASO2

mU*mC*mC*mG*mG*C*C*T*C*G*G*C*A*G*A*mU*mA*mU*mC*mG (mU*mC*mC*mG*mG*dC*dC*dT*dC*dG*dG*dC*dA*dG*dA*mU*mA*mU*mC*mG; antisense) [ASO2down]
inhibition of ISD70-driven IP-10 production (in words) (cGAS [2]): significantly less inhibitory than ASO2up | inhibition of TLR9 sensing of ODN2006 (in words) (human TLR9): significantly reduced TLR9 inhibition | effect on ISD70-induced IP-10 production at low dose (in words) (cGAS [1]): significantly increased IP-10 production

mU*mG*mA*mU*mU*C*C*A*A*A*G*C*C*A*G*mG*mG*mU*mU*mA (mU*mG*mA*mU*mU*dC*dC*dA*dA*dA*dG*dC*dC*dA*dG*mG*mG*mU*mU*mA) [ASO10]
inhibition of TLR9 sensing of ODN2006 (in words) (human TLR9): significantly inhibited TLR9 sensing of ODN2006 | effect on ISD70-induced IP-10 production at increased doses (in words) (cGAS [1]): blocked ISD70-induced IP-10 production

mG*mC*mG*mG*mU*A*T*A*C*A*G*G*T*C*C*mC*mA*mG*mG*mC (GCGGUATACAGGTCCCAGGC; sugars from the 5' end m5 d10 m5, all phosphorothioate, methylation of C not given here) [C2-Mut2]
effect on ISD70-induced IP-10 production at low dose (in words) (cGAS [1]): increased inhibitory activity

G*C*G*G*T*A*T*C*C*A*T*G*T*C*C*C*A*G*G*C (GCGGTATCCATGTCCCAGGC; DNA, all phosphorothioate, methylation of C not given here) [C2-Mut1-PS]
inhibition of ISD45-driven ISRE-luciferase (in words) (mouse cGAS): significantly decreased | inhibition of ISD70-driven IP-10 production (in words) (cGAS [2]): significantly decreased
